In patent publication US20260108547A1, “LEVERAGING L-FUCOSE-MEDIATED SIGNALING TO INDUCE MONOCYTE-DERIVED DENDRITIC CELL POLARIZATION” (H. LEE MOFFITT CANCER CENTER AND RESEARCH INSTITUTE, INC., priority 2022, published 2026):

Columns and labels:
[1] = system: SW1 tumors; assay: Flow cytometric profiling of tumors and lymph nodes, SW1 tumors in C3H/HeN mice fed ± L-fucose and treated ± FTY720 (Table 1); assay type: in vivo, mouse; conditions: for average # of CD8 stem central memory cells: tumors
Method: Tumors of SW1 or SM1 melanoma cells from […] or C57BL/6 mice, respectively) were digested using 1× tumor digest buffer (0.5 mg/mL Collagenase I, 0.5 mg/mL Collagenase IV, 0.25 mg/mL Hyalyronidase V, 0.1 mg/mL DNAse I in HBSS (Millipore Sigma (St. Louis, MO)). Tumors were homogenized using the Miltenyi MACs dissociator. Red blood cells were lysed using ACK lysis buffer (Life Technologies, (Grand Island, NY)). Tumor homogenate cells were counted using a standard hemocytometer.
Total TILs were gated first to single cells (based on forward scatter height vs width, followed by side scatter height vs. width). Live cells were gated from the Zombie negative population from the population above. TILs were gated based on splenocyte size from a control spleen. Individual immune subpopulations were sub-gated from the total TIL population using the following staining criteria: CD3^+ for CD3^+ T cells; CD3^+/CD4^+/CD8^− for CD4^+T cells; CD3^+/CD4^−/CD8^+ for CD8^+ T cells, CD11c^+/CD11b^+ for DCs; either NK1.1 (for C57/BL6 mice) or DX5 (for C3H/HeJ) for NK cells; CD11b^+/GR1^+ for MDSC-like cells; and F4/80^+ for macrophages. Single-cell suspensions from tumor and spleen tissue were stained with Live/Dead Zombie NIR (Biolegend, (San Diego, CA)) at 1:1,000 in PBS for 20 min. Cell suspensions were spun down and stained with the following with antibodies at 0.5 μg/ml per antibody: APC anti-mouse CD3, Pacific Blue anti-mouse CD4, BV785 anti-mouse CD8, PerCP anti-mouse CD25, FITC anti-mouse F4/80, PeCy7 anti-mouse CD11c, PE anti-mouse NK1.1 or PE anti-mouse DX5, and PerCP-Cy5.5 anti-mouse CD11b. After staining, the cells were washed and fixed (2% formaldehyde), followed by another wash and flow cytometric analysis. The compensation controls were prepared using 0.5 μg/mL of each antibody with UltraComp eBeads, (ThermoFisher Scientific (Waltham, MA)). All samples were subject to flow cytometric profiling using a LSR Flow Cytometer (BD Biosciences (San Jose, CA)) and analysis as indicated using FlowJo software (BD Biosciences (San Jose, CA)).
For all mouse models, 1×10^6 melanoma cells were injected subcutaneously in the right hind flanks of each mouse. […] This dosage is within ranges for dietary supplementation with L-fucose and other similar dietary sugars (e.g., D-mannose) in other rodent studies. When the tumors reached −2 cm^3, the animals were sacrificed, and the tumors either processed for flow cytometric profiling or for histological analysis as indicated.
Control vs. L-fucose±FTY720 models (FIG. 2): SW1 or SM1 mouse melanoma cells were injected into syngeneic C3H/HeN (or NSG) female or C57BL/6 male mice, respectively. Cells were injected as follows: parental SW1 cells for FIG. 1A; parental SM1 cells for FIG. 1E; SW1 cells stably expressing either empty vector (EV) or mouse fucose kinase (mFuk) for FIG. 1L; and parental SW1 cells for FIG. 1M. FTY720 was administered at 20 μg every 2 days starting on Day 12, just prior to the initiation of LF, until endpoint.

[2] = system: PD-L1; assay: Flow cytometric assessment of cell surface PD-L1, mouse melanoma cells (SW1, SM1); assay type: cell-based
Method: Indicated cells were treated for 72 h with DMSO, 250 μM fucosyltransferase inhibitor (FUTi) (Millipore Sigma (St. Louis, MO)), or 250 μM of L-fucose (Biosynth (Oak Terrace, IL)). After 72 h, cells were stained with 0.1 μM PKH26 (Millipore Sigma (St. Louis, MO)) prior to fixation in 4% formaldehyde solution. The cells were stained with anti-HLA-DRB1 and fluorescein AAL, or anti-human or anti-mouse PD-L1 overnight. The following day the cells were washed 3 times prior to adding AlexaFluor 594 donkey anti-rabbit. Cells were washed 3 times and then subject to flow cytometric analyses using a FACSCalibur (BD Biosciences (San Jose, CA)). Samples were analyzed using FlowJo analysis software (BD Biosciences (San Jose, CA)). Median values of DRB1 and AAL were normalized to PKH26 values and statistical analysis was performed using GraphPad Prism.

[3] = system: breast tumors; assay: Syngeneic breast tumor model, tumor growth and flow cytometry of immune cells; assay type: in vivo
Excerpt: We observed that L-fucose reduces tumor growth in breast cancer and enriches for CD11c+ cells.

[4] = system: CD209; assay: DC broad panel analysis and signaling array on phosphorylated proteins; assay type: cell-based
Excerpt: To better understand the phenotype of DC subsets after L-fucose treatment, we preformed broad panel analysis to highlight unique subsets of DCs, including markers of activation, cross presentation and known signaling mechanisms. […] To determine if this increased expression was related to any other signaling changes we performed a signaling array on key phosphorylated proteins on activated DCs after L-fucose treatment. […] From this, we concluded that L-fucose increases expression of CD209 and modulates downstream signaling paths

[5] = system: SW1 tumor cells; assay: Co-culture of pretreated moDCs with GFP-expressing SW1 tumor cells (GFP loss, LDH release); assay type: cell-based, mouse; conditions: loss of GFP fluorescence
Excerpt: We next sought to determine if the change in phagocytosis we observe in the bead uptake assay was accompanied with increased cytotoxic tendencies in the L-fucose-treated moDCs. To this end we co-cultured pretreated moDCs with GFP-expressing SW1 tumor cells to observe (FIG. 26C) loss of GFP fluorescence correlating with SW1 and (FIG. 26D) release of LDH as markers of cell death.

With `C[C@H](O)[C@@H](O)[C@@H](O)[C@H](O)C=O` [L-fucose] the “average # of CD8 stem central memory cells” value ([1]; Day 28) was 0.00 per 10^6 cells, the “average # of CD8 stem central memory cells” value ([1]; Day 42) was 0.00 per 10^6 cells and the “intratumoral CD4+T central and effector memory subpopulations” value ([1]; SW1 model ± FTY720) was “increases”. For the same molecule, the “cytotoxic CD4+T cells” value ([1]; midpoint (Day 28)) was “transiently but significantly increased”, the “intratumoral monocyte-derived DCs (moDCs) and lymph node cDC2s” value ([1]; oral L-fuc, SW1 model) was “significant, albeit transient, increases” and the “cell surface levels of PD-L1” value [2] was “does not alter”. The “CD11c+ cells in breast tumors” value ([3]; flow cytometry) was “enrichment of CD11c+ cells”, the breast tumor growth ([3]; syngeneic breast tumor model) was “dose-dependent tumor suppression” and the CD209 expression ([4]; DC subsets after L-fucose treatment) was “increase”. For the same molecule, the “AKT and PARP (signaling array on phosphorylated proteins)” value ([4]; activated DCs) was “significant decreases” and the “phenotype of moDCs in co-culture with SW1 tumor cells” value [5] was “cytotoxic-like phenotype”.
